# Experimental data published in patent US20230017532A1 (Hoffmann-La Roche Inc., priority 2018, published 2023).
# Counter-ions that a name gives are not always drawn.
# System: Acinetobacter baumannii ATCC17978
# Test: Antimicrobial susceptibility testing: 90% growth inhibitory concentration (IC90) determination, Iso-Sensitest broth, OD 600 nm
# Type: cell-based
# Details: 90% growth inhibitory concentration, Acinetobacter baumannii ATCC17978, Iso-Sensitest broth, OD 600 nm over 16 h; read-out: ATCC 17978 IC90
# Summary of the method: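 Growth of bacteria (~5×10^5 CFU/ml, Iso-Sensitest medium, 35±2 °C) was followed by OD at 600 nm at 20-min intervals over 16 h against a 10-point twofold compound series (e.g. 50–0.097 μM final). Concentration giving 90% inhibition in log phase was reported.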
row,IC90 [nM],SMILES
1,660,"CCc1cc(Nc2nccn3c(-c4ccc(OC)c(F)c4F)cnc23)ccc1C(=O)NCCNCCN [Example 186, N-[2-(2-aminoethyl-amino)ethyl]-4-[[3-(2,3-difluoro-4-methoxyphenyl)imidazo[1,2-a]pyrazin-8-yl]amino]-2-ethyl-benzamide;2,2,2-trifluoroacetic acid]"
2,64,"CCc1cc(Nc2nccn3c(-c4ccc(OCC#N)c(F)c4F)cnc23)ccc1C(=O)NCCOCCN [Example 20, N-[2-(2-aminoethoxy)ethyl]-4-[[3-[4-(cyanomethoxy)-2,3-difluoro-phenyl]imidazo[1,2-a]pyrazin-8-yl]amino]-2-ethyl-benzamide;2,2,2-trifluoroacetic acid]"

row,SMILES,IC90 [nM]
1,"COc1ccc(-c2cnc3c(Nc4ccc(C(=O)NCCOCCN5CCNCC5)c(C)c4)nccn23)cc1 [Example 44, 4-[[3-(4-methoxyphenyl)imidazo[1,2-a]pyrazin-8-yl]amino]-2-methyl-N-[2-(2-piperazin-1-ylethoxy)ethyl]benzamide;dihydrochloride]",460

# Same assay, conditions: Acinetobacter baumannii, ATCC17978, 16 h, 90% growth inhibitory concentration, Acinetobacter baumannii ATCC17978, Iso-Sensitest broth, OD 600 nm over 16 h; read-out: ATCC 17978 IC90
row,IC90 [nM],SMILES
1,440,"Cc1cc(Nc2nccn3c(-c4ccc(OC(F)F)cc4)cnc23)ccc1C(=O)NCCNCCN [Example 101, N-[2-(2-aminoethylamino)ethyl]-4-[[3-[4-(difluoromethoxy)phenyl]imidazo [1,2-a]pyrazin-8-yl]amino]-2-methylbenzamide; hydrochloride]"
2,1200,"Cc1cc(Nc2nccn3c(-c4ccc(OC(F)F)cc4)cnc23)ccc1C(=O)NCCOCCNC(=O)CCC(=O)O [Example 78, 4-[2-[2-[[4-[[3-[4-(difluoromethoxy)phenyl]imidazo [1,2-a]pyrazin-8-yl]amino]-2-methylbenzoyl]amino]ethoxy]ethylamino]-4-oxobutanoic acid]"
3,2400,"COC(=O)COCCOCCNC(=O)c1ccc(Nc2nccn3c(-c4ccc(OC(F)F)cc4)cnc23)cc1C [Example 156, methyl 2-[2-[2-[[4-[[3-[4-(difluoro-methoxy)phenyl]imidazo [1,2-a]pyrazin-8-yl]amino]-2-methylbenzoyl]amino]ethoxy]ethoxy]acetate]"
4,200,"COc1ccc(-c2cnc3c(Nc4ccc(C(=O)NCCN(C)CCN)c(C)c4)nccn23)cc1F [Example 23, N-(2-((2-aminoethyl)(methyl)amino)ethyl)-4-((3-(3-fluoro-4-methoxyphenyl)imidazo[1,2-a]pyrazin-8-yl)amino)-2-methylbenzamide]"
5,1900,"COc1ccc(-c2cnc3c(Nc4ccc(C(=O)N(C)CCN(C)CCO)c(C)c4)nccn23)cc1F [Example 144, 4-[[3-(3-fluoro-4-methoxyphenyl)imidazo[1,2-a]pyrazin-8-yl]amino]-N-[2-[2-hydroxyethyl (methyl)amino]ethyl]-N,2-dimethyl-benzamide]"
6,620,"COc1ccc(-c2cnc3c(Nc4ccc(C(=O)NCCOCCNC(C)=O)c(C)c4)nccn23)cc1 [Example 120, N-[2-(2-acetamidoethoxy)ethyl]-4-[[3-(4-methoxyphenyl)imidazo[1,2-a]pyrazin-8-yl]amino]-2-methylbenzamide]"
7,340,"Cc1cc(Nc2nccn3c(-c4ccc(OC(F)F)cc4)cnc23)ccc1C(=O)NCCOCCN1CCC(O)CC1 [Example 81, 4-[[3-[4-(difluoromethoxy)phenyl]imidazo [1,2-a]pyrazin-8-yl]amino]-N-[2-[2-(4-hydroxy-piperidin-1-yl)ethoxy]ethyl]-2-methylbenzamide]"
8,280,"CCc1cc(Nc2nccn3c(-c4ccc(OC(F)F)c(F)c4F)cnc23)ccc1C(=O)NCCCNCCO [Example 193, 4-((3-(4-(difluoro-methoxy)-2,3-difluorophenyl)imidazo[1,2-a]pyrazin-8-yl)amino)-2-ethyl-N-(3-((2-hydroxyethyl)amino)propyl) benzamide]"
9,290,"CNCCOCCNC(=O)c1ccc(Nc2nccn3c(-c4ccc(OC(F)F)cc4)cnc23)cc1C [Example 45, 4-((3-(4-(difluoromethoxy)phenyl)imidazo[1,2-a]pyrazin-8-yl)amino)-2-methyl-N-(2-(2-(methylamino)ethoxy)ethyl)benzamide]"
10,580,"Cc1cc(Nc2nccn3c(-c4ccc(OC(F)F)cc4)cnc23)ccc1C(=O)NCCOCCN1CC2(COC2)C1 [Example 114, 4-[[3-[4-(difluoromethoxy)phenyl]imidazo [1,2-a]pyrazin-8-yl]amino]-2-methyl-N-[2-[2-(2-oxa-6-azaspiro [3.3]heptan-6-yl)ethoxy]ethyl] benzamide]"
11,1400,"Cc1cc(Nc2nccn3c(-c4ccc(OC(F)F)cc4)cnc23)ccc1C(=O)NCCOCCN=C(N(C)C)N(C)C [Example 79, N-[2-[2-[bis (dimethylamino)methylidene-amino]ethoxy]ethyl]-4-[[3-[4-(difluoro-methoxy)phenyl]imidazo [1,2-a]pyrazin-8-yl]amino]-2-methylbenzamide]"
12,300,"CCc1cc(Nc2nccn3c(-c4ccc(OC(F)F)c(F)c4F)cnc23)ccc1C(=O)NCCOCCN(C)CC(=O)O [Example 51, N-(2-(2-(4-((3-(4-(Difluoromethoxy)-2,3-difluorophenyl)imidazo[1,2-a]pyrazin-8-yl)amino)-2-ethylbenzamido)ethoxy)ethyl)-N-methylglycine trifluoroacetate]"
13,920,"CCc1cc(Nc2nccn3c(-c4ccc(OC)c(F)c4F)cnc23)ccc1C(=O)NCCNCC(=O)O [Example 48, (2-(4-((3-(2,3-difluoro-4-methoxyphenyl)imidazo[1,2-a]pyrazin-8-yl)amino)-2-ethylbenzamido)ethyl)glycine compound with 2,2,2-trifluoroacetic acid]"
14,280,"Cc1cc(Nc2nccn3c(-c4ccc(OC(F)F)cc4)cnc23)ccc1C(=O)NCCOCCNC=O [Example 94, 4-[[3-[4-(difluoromethoxy)phenyl]imidazo [1,2-a]pyrazin-8-yl]amino]-N-[2-(2-formamidoethoxy)ethyl]-2-methylbenzamide]"
15,380,"CCc1cc(Nc2nccn3c(-c4ccc(OC)c(F)c4F)cnc23)ccc1C(=O)NCCCNCC(=O)O [Example 49, (3-(4-((3-(2,3-difluoro-4-methoxyphenyl)imidazo[1,2-a]pyrazin-8-yl)amino)-2-ethylbenzamido)propyl)glycine compound trifluoroacetate]"
16,120,"COc1ccc(-c2cnc3c(Nc4ccc(C(=O)NCCOCCN)c(Cl)c4)nccn23)cc1 [Example 6, N-(2-(2-aminoethoxy)ethyl)-2-chloro-4-((3-(4-methoxyphenyl)imidazo[1,2-a]pyrazin-8-yl)amino)benzamide hydrochloride]"
17,970,"Cc1cc(Nc2nccn3c(-c4ccc(OC(F)F)cc4)cnc23)ccc1C(=O)NCCOCCN1CCOC(CN)C1 (stereo not shown) [Example 164, N-[2-[2-[2-(aminomethyl)morpholin-4-yl]ethoxy]ethyl]-4-[[3-[4-(difluoro-methoxy)phenyl]imidazo [1,2-a]pyrazin-8-yl]amino]-2-methylbenzamide; hydrochloride]"
18,280,"Cc1cc(Nc2nccn3c(-c4ccc(OC(F)F)cc4)cnc23)ccc1C(=O)NCCOCCN1CCCCC1 [Example 95, 4-[[3-[4-(difluoromethoxy)phenyl]imidazo [1,2-a]pyrazin-8-yl]amino]-2-methyl-N-[2-(2-piperidin-1-ylethoxy)ethyl] benzamide]"
19,2200,"Cc1cc(Nc2nccn3c(-c4ccc(OC(F)F)cc4)cnc23)ccc1C(=O)NCCOCCNC(=O)C(N)CCCCN (stereo not shown) [Example 154, N-[2-[2-(2,6-diaminohexanoyl-amino)ethoxy]ethyl]-4-[[3-[4-(difluoromethoxy)phenyl]imidazo [1,2-a]pyrazin-8-yl]amino]-2-methylbenzamide; hydrochloride]"
20,380,"COc1ccc(-c2cnc3c(Nc4ccc(C(=O)NCCOCCN5CCNC(=O)C5)c(C)c4)nccn23)c(F)c1F [Example 3, 4-[[3-(2,3-difluoro-4-methoxy-phenyl)imidazo[1,2-a]pyrazin-8-yl]amino]-2-methyl-N-[2-[2-(3-oxopiperazin-1-yl)ethoxy]ethyl]benzamide;2,2,2-trifluoroacetic acid]"
21,670,"Cc1cc(Nc2nccn3c(-c4ccc(OC(F)F)cc4)cnc23)ccc1C(=O)NCCOCCNC(=O)CN(C)C [Example 127, 4-[[3-[4-(difluoromethoxy)phenyl]imidazo [1,2-a]pyrazin-8-yl]amino]-N-[2-[2-[[2-(dimethyl-amino)acetyl]amino]ethoxy]ethyl]-2-methylbenzamide]"
22,720,"Cc1cc(Nc2nccn3c(-c4ccc(OC(F)F)cc4)cnc23)ccc1C(=O)NCCOCCO [Example 129, 4-[[3-[4-(difluoromethoxy)phenyl]imidazo [1,2-a]pyrazin-8-yl]amino]-N-[2-(2-hydroxyethoxy)ethyl]-2-methylbenzamide]"
23,460,"Cc1cc(Nc2nccn3c(-c4ccc(OC(F)F)cc4)cnc23)ccc1C(=O)NCCOCCNS(C)(=O)=O [Example 102, 4-[[3-[4-(difluoromethoxy)phenyl]imidazo [1,2-a]pyrazin-8-yl]amino]-N-[2-[2-(methane-sulfonamido)ethoxy]ethyl]-2-methylbenzamide]"
24,120,"CCc1cc(Nc2nccn3c(-c4ccc(OC)c(F)c4F)cnc23)ccc1C(=O)NCCN(C)CCN [Example 168, N-[2-[2-aminoethyl (methyl)amino]ethyl]-4-[[3-(2,3-difluoro-4-methoxyphenyl)imidazo[1,2-a]pyrazin-8-yl]amino]-2-ethylbenzamide; hydrochloride]"

# Same assay, conditions: Acinetobacter baumannii, ATCC17978, 16 h, read-out: ATCC 17978 IC90
row,SMILES,IC90 [nM]
1,"COc1ccc(-c2cnc3c(Nc4ccc(C(=O)N(C)CCOCCN)c(C)c4)nccn23)cc1 [Example 24, N-(2-(2-aminoethoxy)ethyl)-4-((3-(4-methoxyphenyl)imidazo[1,2-a]pyrazin-8-yl)amino)-N,2-dimethylbenzamide hydrochloride]",430
